From US20080275078A1, “Pyrazolo[3,4-B] Pyridine Compounds and Their Use as Pde4 Inhibitors” (Glaxo Group Limited, priority 2004, published 2008)
One block for each compound: values may come before it.

Key:
[1] = Preliminary test of systemic exposure after oral administration to rat(s); format: in vivo; conditions: about 1 mg/kg, free base, in approx. 10% DMSO and 90% PEG200/water (70:30), preliminary tests
Excerpt: Although the compound of formula (I) or salt thereof may be administered orally, oral administration is not presently thought to be a preferred route of administration, at least for the compound 4-{[1-(aminocarbonyl)-4-piperidinyl]amino}-N-[(3,4-dimethylphenyl)methyl]-1-ethyl-1H-pyrazolo[3,4-b]pyridine-5-carboxamide (“free base” form) (e.g. Example 2, 2A or 2B).

[2] = Measured logD; format: physicochemical; conditions: octanol/water; pH=7.4, free base
[3] = tested on: dinitrofluorobenzene (DNFB)-induced delayed type hypersensitivity (DTH) response in pigs; assay: In Vivo Assay A: pig model of atopic dermatitis, skin topical administration; conditions: for reduction in the mean summed score: ca. 2.5% (w/v) in DMSO/acetone solution, about 2 h prior to and 6 h after DNFB challenge, vs vehicle alone
Excerpt: The pig DTH (delayed type hypersensitivity) model of contact hypersensitivity utilizes the Th2-mediated inflammatory response in pig skin to mimic the pathology of atopic dermatitis in humans. The model measures the potential anti-inflammatory effect of compounds, topically-applied to the skin, on the acute DTH (delayed type hypersensitivity) response in castrated male Yorkshire pigs.
In general in the assay, pigs (domestic Yorkshire pigs, 15-18 kg at time of sensitization, castrated males) are first sensitized by topical application of ca. 10% (w/v) dinitrofluorobenzene (DNFB) dissolved in DMSO:acetone:olive oil (ca. 1:5:3) (ca. 40 mg DNFB, 400 microlitre solution total) to the ears (outer) and groin (inner). The pigs are then challenged 12 days later with ca. 0.6% (w/v) DNFB applied to randomized sites on the shaved back of the pigs (ca. 90 micrograms/site; sites are identified and numbered by grid made with marking pen).
On the day of challenge, the treatments are performed at the challenge sites at about 2 hours prior to and about 6 hours after challenge (for DMSO/acetone solutions/suspensions containing the PDE4 inhibitor, to maximize exposure to drug), or at about 30 minutes after and about 6 hours after challenge (for topical ointments or creams containing the PDE4 inhibitor, representing a more clinically relevant treatment protocol).
One day (about 24 hrs) after challenge, and optionally again at ca. 48 hrs post challenge, test sites are visually evaluated for intensity and extent of erythema by measuring the diameter of the reaction at its widest point and assigning scores of 0 to 4 for each of erythema intensity and erythema extent. Induration (a measure of swelling) is also scored 0 to 4. Scores for erythema intensity, erythema extent and induration are assigned according to the following criteria: Intensity of Erythema: 0=normal, 1=minimal, barely visible, 2=mild, 3=moderate, 4=severe. Extent of Erythema (not raised): 0=no edema, 1=macules of pin head size, 2=lentil sized macules, 3=confluent macules, 4=diffuse over entire site. Induration (palpable): 0=normal, 1=nodules of pin head size, 2=doughy lentil sized nodules, 3=confluent firm nodules, 4=diffuse hard lesion. The summed visual score at ca. 24 hours includes the individual scores for erythema intensity, erythema extent, and induration; so the maximal summed score for each site would be 12. High summed scores can generally indicate a high inflammatory response. Visual scores are subject to some inaccuracy/error.
Differences in the summed score between adjacent control (placebo) and treatment sites on the grids are calculated. This difference value is then used to determine the percent inhibition compared to the summed score for the control (placebo) sites. The more negative the difference value, the greater the calculated inhibition. Percent inhibition of (percent inhibition compared to) the mean summed score can be calculated.
About 24 hours after challenge, treatment sites can optionally also be visually evaluated for lesion area.
The anti-inflammatory effect of the compound 4-{[1-(aminocarbonyl)-4-piperidinyl]amino}-N-[(3,4-dimethylphenyl)methyl]-1-ethyl-1H-pyrazolo[3,4-b]pyridine-5-carboxamide (“Example 2 or 2A compound”), applied topically to the skin, on the acute DTH response in castrated male Yorkshire pigs is compared to that of another PDE4 inhibitor cipamfylline (BRL-61063) and the topical immunomodulator pimecrolimus.
In the above assay, the Example 2 or 2A compound is topically administered: either (A) at ca. 2.5% (w/v) concentration in a solution of ca. 10% DMSO/90% acetone (ca. 50 microlitres or ca. 1.5 mg/site) at about 2 hours prior to and about 6 hours after the DNFB challenge; or (B) at ca. 0.5% (w/w) concentration in an ointment containing propylene glycol (PG)* (ca. 25 mg of formulation/site) at about 30 minutes after and about 6 hours after the DNFB challenge. […]

[4] = Preliminary aqueous solubility screen; format: physicochemical; conditions: pH 7.4 PBS with about 5% DMSO, about room temperature, free base
Protocol: Aqueous solubility: A preliminary screen aims to estimate roughly the aqueous solubility of compounds by (as an approximate summary): (i) creating a ca. 10 mM solution of the compound in DMSO, (ii) diluting a portion of this DMSO solution by mixing about 19 parts by volume of pH 7.4 aqueous phosphate buffered saline (PBS) buffer with 1 part by volume of the ca. 10 mM DMSO solution, (iii) “filtering” the mixture with the aid of centrifugation, and then (iv) measuring the concentration of the dissolved compound in the “filtrate”.

[5] = tested on: atopic dermatitis patients; conditions: 0.5% ointment, twice daily topical application; cited from earlier work
[6] = tested on: COPD patients; conditions: cited from earlier work
[7] = tested on: atopic dermatitis patients; conditions: 0.15% cream vs vehicle and hydrocortisone 17-butyrate (0.1%) cream; cited from earlier work

systemic exposure after oral administration [1]: low systemic exposure | logD [2]: ~3.4 | melting point: 152 to 154 °C | aqueous solubility [4]: about 60 micrograms of the compound/ml
Structure (SMILES): CCn1ncc2c(NC3CCN(C(N)=O)CC3)c(C(=O)NCc3ccc(C)c(C)c3)cnc21 [Example 2, 4-{[1-(aminocarbonyl)-4-piperidinyl]amino}-N-[(3,4-dimethylphenyl)methyl]-1-ethyl-1H-pyrazolo[3,4-b]pyridine-5-carboxamide]
inhibition of the mean summed score (erythema intensity, erythema extent, induration) ([3]; ca. 0.5% (w/w) in PG ointment, about 30 min and 6 h after DNFB challenge, vs placebo PG ointment, ca. 24 h, p<0.05): 13-14% | reduction in the mean summed score [3]: about 21% | lesion area ([3]; skin administration in DMSO/acetone or PG ointment, results subject to some inaccuracy/error): decrease the lesion area

Structure (SMILES): COc1ccc(C2CNC(=O)NC2)cc1O[C@H]1C[C@@H]2CC[C@H]1C2 [CP80,633]
inflammatory parameters in atopic dermatitis patients [5]: reductions of inflammatory parameters

Structure (SMILES): COc1ccc([C@]2(C#N)CC[C@@H](C(=O)O)CC2)cc1OC1CCCC1 [cilomilast]
forced expiratory volume (FEV1) in COPD patients ([6]; 15 mg orally twice daily): appears to improve forced expiratory volume | antiinflammatory effects in COPD patients ([6]; human, in vivo): appears to have antiinflammatory effects

Structure (SMILES): O=C(Nc1c(Cl)cncc1Cl)c1ccc(OC(F)F)c(OCC2CC2)c1 [roflumilast]
FEV1 in COPD patients ([6]; roflumilast, Lipworth 2005): small improvements in FEV1

Structure (SMILES): Nc1nc2c([nH]1)c(=O)n(CC1CC1)c(=O)n2CC1CC1 [cipamfylline, reference compound]
reduction in the summed scores ([3]; ca. 0.25% (w/w) in ointment, not statistically significant): 6-7% | reduction in the mean summed score [3]: about 8% | effectiveness in the treatment of atopic dermatitis patients [7]: significantly more effective than vehicle, but significantly less effective than hydrocortisone 17-butyrate (0.1%) cream
